EC50 and IC50 data for nine compounds are collected here from patent EP2396329B1, “COMPOUNDS FOR THE TREATMENT OF HEPATITIS C” (priority 2009, dated 2010).

As a reminder, the EC50 is the concentration needed to bring the measured effect to its halfway point. As a reminder, the IC50 is the concentration that gives 50% inhibition.

One experiment has as its system HCV replicon. In words: HCV replicon assay (FRET or luciferase readout). Format: cell-based. To be noted: Hepatitis C virus; HCV replicon cells; FRET or luciferase activity; read-out: EC50. The source says:
FRET Assay Preparation. To perform the HCV FRET screening assay, 96-well cell culture plates were used. The FRET peptide (Anaspec, Inc.) (Taliani et al., Anal. Biochem. 1996, 240, 60-67) contains a fluorescence donor, EDANS, near one end of the peptide and an acceptor, DABCYL, near the other end. The fluorescence of the peptide is quenched by […] resonance energy transfer (RET) between the donor and the acceptor, but as the NS3 protease cleaves the peptide the products are released from RET quenching and the fluorescence of the donor becomes apparent. The assay reagent was made as follows: 5X cell Luciferase cell culture lysis reagent from Promega (#E153A) diluted to 1X with dH2O, NaCl added to 150 mM final, the FRET peptide diluted to 20 µM final from a 2 mM stock.
To prepare plates, HCV replicon cells, with or without a Renilla luciferase reporter gene, were trypsinized and placed into each well of a 96-well plate with titrated test compounds added in columns 3 through 12; columns 1 and 2 contained a control compound (HCV protease inhibitor), and the bottom row contained cells without compound. The plates were then placed in a CO2 incubator at 37 °C.
Assays. Subsequent to addition of the test compounds described above (FRET Assay Preparation), at various times the plate was removed and Alamar blue solution (Trek Diagnostics, #00-100) was added per well as a measure of cellular toxicity. After reading in a Cytoflour 4000 instrument (PE Biosystems), plates were rinsed with PBS and then used for FRET assay by the addition of 30 ul of the FRET peptide assay reagent described above (FRET Assay Preparation) per well. The plate was then placed into the Cytoflour 4000 instrument which had been set to 340 excite/490 emission, automatic mode for 20 cycles and the plate read in a kinetic mode. Typically, the signal to noise using an endpoint analysis after the reads was at least three-fold. Alternatively, after Alamar blue reading, plates were rinsed with PBS, 50 ul of DMEM (high glucose) without phenol red was added and plates were then used for luciferase assay using the Promega Dual-Glo Luciferase Assay System.
Compound analysis was determined by quantification of the relative HCV replicon inhibition and the relative cytotoxicity values. To calculate cytoxicity values, the average Alamar Blue fluorescence signals from the control wells were set as 100% non-toxic. The individual signals in each of the compound test wells were then divided by the average control signal and multiplied by 100% to determine […]. To calculate the HCV replicon inhibition values, an average background value was obtained from the two wells containing the highest amount of HCV protease inhibitor at the end of the assay period. These numbers were similar to those obtained from naïve Huh-7 cells.
The background numbers were then subtracted from the average signal obtained from the control wells and this number was used as 100% activity. The individual signals in each of the compound test wells were then divided by the averaged control values after background subtraction and multiplied by 100% to determine percent activity. EC50 values for a protease inhibitor titration were calculated as the concentration which caused a 50% reduction in FRET or luciferase activity. The two numbers generated for the compound plate, percent cytoxicity and percent activity were used to determine compounds of interest for further analysis.

A further experiment addresses T1, HCV NS5B (Hepatitis C virus genotype 1b, UniProt Q9WMX2).
T1 construct: The protein was expressed with an 18 amino acid C-terminal truncation to enhance the solubility; made in house; host or cells: E. coli BL21(DE3)
Put plainly: HCV NS5B RdRp enzyme assay (standard or modified). To be noted: HCV NS5B RdRp enzyme, genotype 1b; read-out: IC50. Format: biochemical. As to the method: HCV NS5B RdRp cloning, expression, and purification. The cDNA encoding the NS5B protein of HCV, genotype 1b, was cloned into the pET21a expression vector. The protein was expressed with an 18 amino acid C-terminal truncation to enhance the solubility. The E. coli competent cell line BL21(DE3) was used for expression of the protein. Cultures were grown at 37 °C for ~ 4 hours until the cultures reached an optical density of 2.0 at 600 nm. The cultures were cooled to 20 °C and induced with I mM IPTG. Fresh ampicillin was added to a final concentration of 50 µg/ml and the cells were grown overnight at 20 °C.
Cell pellets (3L) were lysed for purification to yield 15-24 mgs of purified NS5B. The lysis buffer consisted of 20 mM Tris-HCl, pH 7.4, 500 mM NaCl, 0.5% triton X-100, 1 mM DTT, 1mM EDTA, 20% glycerol, 0.5 mg/ml lysozyme, 10 mM MgCl2, 15 ug/ml deoxyribonuclease I, and Complete TM protease inhibitor tablets (Roche). After addition of the lysis buffer, frozen cell pellets were resuspended using a tissue homogenizer. To reduce the viscosity of the sample, aliquots of the lysate were sonicated on ice using a microtip attached to a Branson sonicator. The sonicated lysate was centrifuged at 100,000 x g for 1hr at 4 °C and filtered through a 0.2 µm filter unit (Corning).
The protein was purified using three sequential chromatography steps: Heparin sepharose CL-6B, polyU sepharose 4B, and Hitrap SP sepharose (Pharmacia). The chromatography buffers were identical to the lysis buffer but contained no lysozyme, deoxyribonuclease I, MgCl2 or protease inhibitor and the NaCl concentration of the buffer was adjusted according to the requirements for charging the protein onto the column. Each column was eluted with a NaCl gradient which varied in length from 5-50 column volumes depending on the column type. After the final chromatography step, the resulting purity of the enzyme is >90% based on SDS-PAGE analysis. The enzyme was aliquoted and stored at -80 °C.
Standard HCV NS5B RdRp enzyme assay. HCV RdRp genotype 1b assays were run in a final volume of 60 µl in 96 well plates (Costar 3912). The assay buffer is composed of 20 mM Hepes, pH 7.5, 2.5 mM KCI, 2.5 mM MgCl2, 1 mM DTT, 1.6 U RNAse inhibitor (Promega N2515), 0.1 mg/ml BSA (Promega R3961), and 2 % glycerol. All compounds were serially diluted (3-fold) in DMSO and diluted further in water such that the final concentration of DMSO in the assay was 2%. HCV RdRp genotype Ib enzyme was used at a final concentration of 28 nM. A polyA template was used at.6 nM, and a biotinylated oligo-dT12 primer was used at 180 nM final concentration. Template was obtained commercially (Amersham 27-4110). Biotinylated primer was prepared by Sigma Genosys. 3H-UTP was used at 0.6 µCi (0.29 µM total UTP). Reactions were initiated by the addition of enzyme, incubated at 30 °C for 60 min, and stopped by adding 25 µl of 50 mM EDTA containing SPA beads (4 µg/µl, Amersham RPNQ 0007). Plates were read on a Packard Top Count NXT after > 1hr incubation at room temperature.
Modified HCV NS5B RdRp enzyme assay. A modified enzyme assay was performed essentially as described for the standard enzyme assay except for the following: The biotinylated oligo dT12 primer was precaptured on streptavidin-coated SPA beads by mixing primer and beads in assay buffer and incubating at room temperature for one hour. Unbound primer was removed after centrifugation. The primer-bound beads were resuspended in 20 mM Hepes buffer, pH 7.5 and used in the assay at final concentrations of 20 nM primer and 0.67 µg/µl beads. Order of addition in the assay: enzyme (14 nM) was added to diluted compound followed by the addition of a mixture of template (0.2 nM), 3H-UTP (0.6 µCi, 0.29 µM), and primer-bound beads, to initiate the reaction; concentrations given are final. Reactions were allowed to proceed for 4 hours at 30° C.
IC50 values for compounds were determined using seven different [I]. […]

T1 sequence (Q9WMX2 2420-2992): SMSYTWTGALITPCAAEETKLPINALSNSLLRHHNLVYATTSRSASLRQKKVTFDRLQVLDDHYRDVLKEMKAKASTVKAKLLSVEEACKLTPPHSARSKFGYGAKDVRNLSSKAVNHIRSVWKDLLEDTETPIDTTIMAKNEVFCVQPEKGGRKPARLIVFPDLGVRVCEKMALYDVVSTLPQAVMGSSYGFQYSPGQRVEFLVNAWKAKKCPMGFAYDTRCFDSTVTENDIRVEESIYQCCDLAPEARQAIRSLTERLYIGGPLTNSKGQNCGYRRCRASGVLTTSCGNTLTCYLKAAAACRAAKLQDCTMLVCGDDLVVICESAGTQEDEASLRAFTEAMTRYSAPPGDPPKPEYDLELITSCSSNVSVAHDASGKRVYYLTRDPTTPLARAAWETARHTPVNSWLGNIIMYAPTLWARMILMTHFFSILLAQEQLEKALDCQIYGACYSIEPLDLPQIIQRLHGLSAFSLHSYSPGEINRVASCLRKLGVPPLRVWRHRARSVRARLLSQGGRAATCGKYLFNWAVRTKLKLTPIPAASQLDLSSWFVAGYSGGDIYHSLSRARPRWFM

With `COc1ccc2c(c1)C=C(c1c(C(=O)N3C[C@@H](C)O[C@@H](C)C3)c(C(C)C)nn1C)Cn1c-2c(C2CCCCC2)c2ccc(C(=O)NS(=O)(=O)C(C)C)cc21`, the EC50 in the experiment on HCV replicon lay within 1 to 500 nM. Further, the IC50 at HCV NS5B was in the range of 1 to 500 nM.
On to `COc1ccc2c(c1)C=C(c1c(C(=O)N3CCN(C)CC3)c(C(C)C)nn1C)Cn1c-2c(C2CCCCC2)c2ccc(C(=O)NS(=O)(=O)C(C)C)cc21`, for which the EC50 in the experiment on HCV replicon was in the range of 1 to 500 nM. Also, the IC50 on HCV NS5B fell in the range of 1 to 500 nM.
`COc1ccc2c(c1)C=C(c1c(C(=O)N3C[C@@H](C)N(C)[C@@H](C)C3)c(C(C)C)nn1C)Cn1c-2c(C2CCCCC2)c2ccc(C(=O)NS(=O)(=O)C(C)C)cc21`: in the experiment with HCV replicon, the EC50 lay in the range of 1 to 500 nM. Moreover, the IC50 at HCV NS5B lay within 1 to 500 nM.
In the case of `CCn1nc(C)c(C2=Cc3cc(OC)ccc3-c3c(C4CCCCC4)c4ccc(C(=O)NS(=O)(=O)C(C)C)cc4n3C2)c1C(=O)N1CCOCC1`, the EC50 in the experiment on HCV replicon lay in the range of 1 to 500 nM. For the same compound, the IC50 on HCV NS5B was in the range of 1 to 500 nM.
`COc1ccc2c(c1)C=C(c1ncn(C(C)C)c1C(=O)N1CCOCC1)Cn1c-2c(C2CCCCC2)c2ccc(C(=O)NS(=O)(=O)N(C)C)cc21`: the half-maximal effective concentration (EC50) in the experiment with HCV replicon lay within 1 to 500 nM. Also, the IC50 at HCV NS5B fell in the range of 1 to 500 nM.
With `COc1ccc2c(c1)C=C(c1c(C(=O)N3C[C@@H](C)N(C)[C@@H](C)C3)nnn1C(C)C)Cn1c-2c(C2CCCCC2)c2ccc(C(=O)NS(=O)(=O)N(C)C)cc21`, the EC50 in the experiment with HCV replicon lay within 1 to 500 nM. Further, the IC50 at HCV NS5B is 1 to 500 nM.
With `COc1ccc2c(c1)C=C(c1c(C(=O)N3C[C@@H](C)O[C@@H](C)C3)nnn1C(C)C)Cn1c-2c(C2CCCCC2)c2ccc(C(=O)NS(=O)(=O)N(C)C)cc21`, the EC50 in the experiment with HCV replicon was 1 to 500 nM. For the same compound, the IC50 at HCV NS5B fell in the range of 1 to 500 nM.
For `COc1ccc2c(c1)C=C(c1c(C(=O)N3CCOCC3)nnn1C(C)C)Cn1c-2c(C2CCCCC2)c2ccc(C(=O)NS(=O)(=O)N(C)C)cc21`, the EC50 with HCV replicon was in the range of 1 to 500 nM. Moreover, the IC50 at HCV NS5B lay within 1 to 500 nM.
In the case of `COc1ccc2c(c1)C=C(c1c(C(=O)N3CCN(C)CC(F)(F)C3)nnn1C(C)C)Cn1c-2c(C2CCCCC2)c2ccc(C(=O)NS(=O)(=O)N(C)C)cc21`, the EC50 in the experiment on HCV replicon was in the range of 1 to 500 nM. The IC50 at HCV NS5B was in the range of 1 to 500 nM.
